Assay results from ChEMBL document CHEMBL1131852, “Synthesis and antitumor activity of water-soluble duocarmycin B1 prodrugs” (Bioorg Med Chem Lett, 1999).

How the values were obtained:
HeLa [1] = experiment: In vitro anticellular activity against HeLa S3 cells 1 hr after administration of the compound; type: functional, cell-based; settings: Homo sapiens
HeLa [2] = experiment: In vitro anticellular activity against HeLa S3 cells 72 hr after administration of the compound; type: functional, cell-based; settings: Homo sapiens
[3] = In vivo antitumor activity against Sarcoma 180 at dose 16.0 mg/kg; type: functional, Mus musculus
[4] = In vivo antitumor activity against Sarcoma 180 at dose 8.0 mg/kg; type: functional, Mus musculus
[5] = In vivo antitumor activity against Sarcoma 180 at dose 0.5 mg/kg; type: functional, Mus musculus
[6] = In vivo antitumor activity against Sarcoma 180 at dose 1.0 mg/kg; type: functional, Mus musculus
Colon 26 [7] = experiment: In vivo antitumor activity against Colon 26 […] at dose 2.0 mg/kg; type: functional
Colon 26 [8] = experiment: In vivo antitumor activity against Colon 26 […] at dose 1.0 mg/kg; type: functional
[9] = In vivo antitumor activity against Sarcoma 180 at dose 2.0 mg/kg; type: functional, Mus musculus
Colon 26 [10] = experiment: In vivo antitumor activity against Colon 26 […] at dose 0.25 mg/kg; type: functional
Colon 26 [11] = experiment: In vivo antitumor activity against Colon 26 […] at dose 0.5 mg/kg; type: functional

Compound | IC50 (HeLa [1]) | IC50 (HeLa [2]) | T/C [3] | T/C [4] | T/C [5] | T/C [6] | T/C (Colon 26 [7]) | T/C (Colon 26 [8]) | T/C [9] | T/C (Colon 26 [10]) | T/C (Colon 26 [11])
COC(=O)[C@]1(C)Nc2c(O[C@@H]3OC(CO)[C@@H](O)C(O)[C@@H]3O)cc3c(c2C1=O)C[C@H](Br)CN3C(=O)c1cc2cc(OC)c(OC)c(OC)c2[nH]1 (stereo partly drawn) | 2000 nM | 830 nM | 0.38 | 0.55 | – | – | – | – | – | – | –
COC(=O)[C@]1(C)Nc2c(O)cc3c(c2C1=O)C[C@H](Br)CN3C(=O)c1cc2cc(OC)c(OC)c(OC)c2[nH]1 | 0.13 nM | 0.038 nM | – | – | 0.22 | – | – | – | – | – | –
COC(=O)[C@]1(C)Nc2c(OP(=O)(O)O)cc3c(c2C1=O)C[C@H](Br)CN3C(=O)c1cc2cc(OC)c(OC)c(OC)c2[nH]1 | 40 nM | 3.2 nM | – | – | 0.57 | 0.29 | – | – | – | – | –
COC(=O)[C@]1(C)Nc2c(OC(=O)N3CCN(C)CC3)cc3c(c2C1=O)C[C@H](Br)CN3C(=O)c1cc2cc(OC)c(OC)c(OC)c2[nH]1.Cl | 2000 nM | 70 nM | – | – | – | 0.19 | 0.045 | 0.23 | 0.083 | – | –
COC(=O)[C@]1(C)Nc2c(OC(=O)N3CCN(C)CC3)cc3c(c2C1=O)[C@H](CBr)CN3C(=O)c1cc2cc(OC)c(OC)c(OC)c2[nH]1.Cl | 170 nM | 15 nM | – | – | 0.26 | 0.13 | – | – | – | 0.37 | 0.13
